What all share (assay type): in vivo
Experiment [1] deals with barnyardgrass (Echinochloa crus-galli). The experiment is described as follows: Test A preemergence. The conditions noted are these: Echinochloa crus-galli, pre-emergence, 240 h; for pest or weed control at 125 g/ha: 125 g ai/ha; for pest or weed control at 500 g/ha: 500 g ai/ha. The method, boiled down: (§1)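 Compounds were formulated in a non-phytotoxic solvent mixture with surfactant and applied as a preemergence directed soil spray after seeding, or sprayed postemergence over plants 2 to 10 cm tall at the one- to two-leaf stage. Evaluation after about 10 d compared treated with untreated controls, using a scale from 0 (no effect) to 100 (complete control).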

The subject of experiment [2] is ragweed (common ragweed, Ambrosia elatior). Description: Test A preemergence. To be noted: Ambrosia artemisiifolia, pre-emergence, 240 h; for pest or weed control at 125 g/ha: 125 g ai/ha; for pest or weed control at 500 g/ha: 500 g ai/ha. Put shortly:
as §1

The subject of experiment [3] is Kochia (Kochia scoparia). Description: Test A preemergence. The conditions noted are these: Bassia scoparia, pre-emergence, 240 h; for pest or weed control at 500 g/ha: 500 g ai/ha. Put shortly: as §1
In experiment [4] the test system is giant foxtail (Setaria faberii). Description: Test A preemergence. The conditions noted are these: Setaria faberi, pre-emergence, 240 h; for pest or weed control at 125 g/ha: 125 g ai/ha; for pest or weed control at 500 g/ha: 500 g ai/ha. Put shortly: as §1
For experiment [5], the system named is pigweed (Amaranthus retroflexus). Description: Test A preemergence. To be noted: Amaranthus retroflexus, pre-emergence, 240 h; for pest or weed control at 125 g/ha: 125 g ai/ha; for pest or weed control at 500 g/ha: 500 g ai/ha.
The test system of experiment [6] is ryegrass, Italian (Italian ryegrass, Lolium multiflorum). The experiment is described as follows: Test A preemergence. The conditions noted are these: Lolium multiflorum, pre-emergence, 240 h; for pest or weed control at 125 g/ha: 125 g ai/ha; for pest or weed control at 500 g/ha: 500 g ai/ha. The method, boiled down: as §1
Experiment [7] concerns barnyardgrass (Echinochloa crus-galli). Description: Test B flooded paddy test. To be noted: Echinochloa crus-galli, 250 g ai/ha, Flood, read-out: Barnyardgrass plant response rating. Put shortly: (§2)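 Greenhouse paddy pots with 2-leaf stage plants received compound by direct addition to floodwater 3 cm deep, kept at that level. Scored visually at 13–15 d versus controls (0 no effect; 100 complete control).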

In experiment [8] the test system is sedge, umbrella (small-flower umbrella sedge, Cyperus difformis). The experiment is described as follows: Test B flooded paddy test. To be noted: Cyperus difformis, 250 g ai/ha, Flood, read-out: Sedge, Umbrella plant response rating. The method, boiled down: as §2
Another experiment has as its system rice (Oryra sativa). The experiment is described as follows: Test B flooded paddy test. To be noted: Oryza sativa, 250 g ai/ha, Flood, read-out: Rice plant response rating. The method, boiled down: as §2
Experiment [9] concerns ducksalad (Heteranthera limosa). The experiment is described as follows: Test B flooded paddy test. To be noted: Heteranthera limosa, 250 g ai/ha, Flood, read-out: Ducksalad plant response rating. The method, boiled down:
as §2

The subject of experiment [10] is Galium (catchweed bedstraw, Galium aparine). The experiment is described as follows: Test A postemergence. To be noted: Galium, post-emergence, 240 h, postemergence; for pest or weed control at 125 g/ha: 125 g ai/ha. Put shortly: as §1
The subject of experiment [11] is Kochia (Kochia scoparia). The experiment is described as follows: Test A postemergence. The conditions noted are these: Bassia scoparia, post-emergence, 240 h, postemergence; for pest or weed control at 125 g/ha: 125 g ai/ha. The method, boiled down:
as §1

For experiment [12], the system named is giant foxtail (Setaria faberii). Description: Test A postemergence. To be noted: Setaria faberi, post-emergence, 240 h, postemergence; for pest or weed control at 125 g/ha: 125 g ai/ha. The method, boiled down:
as §1

The test system of experiment [13] is pigweed (Amaranthus retroflexus). The experiment is described as follows: Test A postemergence. The conditions noted are these: Amaranthus retroflexus, post-emergence, 240 h, postemergence; for pest or weed control at 125 g/ha: 125 g ai/ha. Put shortly:
as §1

Experiment [14] relates to wheat (Triticum aestivum). Description: Test A postemergence. To be noted: Triticum aestivum, post-emergence, 240 h, postemergence; for plant injury at 125 g/ha: 125 g ai/ha. Put shortly: as §1
[15] abbreviates: preemergence, 0 to 100 scale where 0 is no effect and 100 is complete control, read-out: Barnyardgrass plant response rating.
Where [16] appears, read: preemergence, 0 to 100 scale where 0 is no effect and 100 is complete control, read-out: Ragweed plant response rating.
[17] abbreviates: preemergence, 0 to 100 scale where 0 is no effect and 100 is complete control, read-out: Foxtail, Giant plant response rating.
[18] abbreviates: preemergence, 0 to 100 scale where 0 is no effect and 100 is complete control, read-out: Pigweed plant response rating.
The mark [19] stands for this setting: preemergence, 0 to 100 scale where 0 is no effect and 100 is complete control, read-out: Ryegrass, Italian plant response rating.
Where [20] appears, read: 0 to 100 scale where 0 is no effect and 100 is complete control.
[21] abbreviates: scale of 0 to 100 where 0 is no effect and 100 is complete control.

In patent US12077503B2, “Substituted cyclic amides and their use as herbicides” (FMC CORPORATION, priority 2015, dated 2024) one finds pest or weed control and plant injury data, which are given here for two molecules.

Structures are written as SMILES. Read-outs that look alike come from different tables or passages of the source.

`Cc1cc([C@H]2CN(C)C(=O)[C@@H]2C(=O)Nc2cccc(F)c2F)on1` [Compound 1196]: the pest or weed control at 125 g/ha in [1] (preemergence, visual injury rating, 0 to 100 scale where 0 is no effect and 100 is complete control, approximately 10 d, read-out: Barnyardgrass plant response rating) stood at 50%; in experiment [2] (preemergence, visual injury rating, 0 to 100 scale where 0 is no effect and 100 is complete control, approximately 10 d, read-out: Ragweed plant response rating), 0%; in the experiment on Kochia (Kochia scoparia) [3] (125 g ai/ha, preemergence, visual injury rating, 0 to 100 scale where 0 is no effect and 100 is complete control, approximately 10 d, read-out: Kochia plant response rating) it was 0%; in experiment [4] (preemergence, visual injury rating, 0 to 100 scale where 0 is no effect and 100 is complete control, approximately 10 d, read-out: Foxtail, Giant plant response rating) it was 70%; in experiment [5] (preemergence, visual injury rating, 0 to 100 scale where 0 is no effect and 100 is complete control, approximately 10 d, read-out: Pigweed plant response rating), 0%; in experiment [6] (preemergence, visual injury rating, 0 to 100 scale where 0 is no effect and 100 is complete control, approximately 10 d, read-out: Ryegrass, Italian plant response rating) it was 0%. The pest or weed control at 125 g/ha in experiment [10] (visual injury vs untreated controls after approx. 10 d, 0 = no effect, 100 = complete control, read-out: Galium plant response rating (0 to 100 scale)) was 0%; in the experiment on Kochia (Kochia scoparia) [11] (visual injury vs untreated controls after approx. 10 d, 0 = no effect, 100 = complete control, read-out: Kochia plant response rating (0 to 100 scale)) it was 0%; in experiment [12] (visual injury vs untreated controls after approx. 10 d, 0 = no effect, 100 = complete control, read-out: Foxtail, Giant plant response rating (0 to 100 scale)) it was 30%; in experiment [13] (visual injury vs untreated controls after approx. 10 d, 0 = no effect, 100 = complete control, read-out: Pigweed plant response rating (0 to 100 scale)), 0%. Besides, the pest or weed control at 500 g/ha was 90% in [1] (setting [15]); 0% in experiment [2] (setting [16]); 0% with Kochia (Kochia scoparia) [3] (preemergence, 0 to 100 scale where 0 is no effect and 100 is complete control, read-out: Kochia plant response rating); 90% in [4] (setting [17]); 0% in experiment [5] (setting [18]); 0% in [6] (setting [19]). For the same molecule, the pest or weed control at 500 g/ha in [10] (500 g ai/ha, 0 to 100 scale, 0 is no effect, 100 is complete control, read-out: Galium plant response rating) is 0%; in the experiment with Kochia (Kochia scoparia) [11] (500 g ai/ha, 0 to 100 scale, 0 is no effect, 100 is complete control, read-out: Kochia plant response rating), 0%; in experiment [12] (500 g ai/ha, 0 to 100 scale, 0 is no effect, 100 is complete control, read-out: Foxtail, Giant plant response rating), 80%; in experiment [13] (500 g ai/ha, 0 to 100 scale, 0 is no effect, 100 is complete control, read-out: Pigweed plant response rating), 0%. Also, the pest or weed control at 250 g/ha stood at 0% in experiment [7] (setting [20]), 0% in [8] (setting [20]), 0% in the experiment with rice (Oryra sativa) (setting [20]) and 30% in [9] (setting [20]). The plant injury at 125 g/ha in experiment [14] (visual injury vs untreated controls after approx. 10 d, 0 = no effect, 100 = complete control, read-out: Wheat plant response rating (0 to 100 scale)) came out at 0%. Also, the plant injury at 500 g/ha in [14] (500 g ai/ha, 0 to 100 scale, 0 is no effect, 100 is complete control, read-out: Wheat plant response rating) came to 0%.

Consider `CN1C[C@H](c2cc(F)c(C(F)(F)F)c(F)c2)[C@@H](C(=O)Nc2ccccc2F)C1=O` [Compound 899], for which the pest or weed control at 125 g/ha in experiment [1] (setting [15]) was found to be 90%; in experiment [2] (setting [16]), 20%; in experiment [4] (setting [17]), 90%; in [5] (setting [18]), 20%; in experiment [6] (setting [19]) it was 30%; in experiment [10] (visual injury rating after approximately 10 d, read-out: Galium plant response rating (0 to 100 scale, 0 no effect, 100 complete control)), 0%. Moreover, the pest or weed control at 125 g/ha with Kochia (Kochia scoparia) [11] (visual injury rating after approximately 10 d, read-out: Kochia plant response rating (0 to 100 scale, 0 no effect, 100 complete control)) was determined as 0%; in experiment [12] (visual injury rating after approximately 10 d, read-out: Foxtail, Giant plant response rating (0 to 100 scale, 0 no effect, 100 complete control)) it was 90%; in experiment [13] (visual injury rating after approximately 10 d, read-out: Pigweed plant response rating (0 to 100 scale, 0 no effect, 100 complete control)), 0%. In addition, the pest or weed control at 500 g/ha in [1] (Preemergence, visual injury vs untreated controls after approximately 10 d, read-out: Barnyardgrass plant response rating (0 to 100 scale where 0 is no effect and 100 is complete control)) was 90%; in experiment [2] (Preemergence, visual injury vs untreated controls after approximately 10 d, read-out: Ragweed plant response rating (0 to 100 scale where 0 is no effect and 100 is complete control)) it was 60%; in the experiment on Kochia (Kochia scoparia) [3] (Preemergence, visual injury vs untreated controls after approximately 10 d, read-out: Kochia plant response rating (0 to 100 scale where 0 is no effect and 100 is complete control)), 70%; in [4] (Preemergence, visual injury vs untreated controls after approximately 10 d, read-out: Foxtail, Giant plant response rating (0 to 100 scale where 0 is no effect and 100 is complete control)), 90%; in experiment [5] (Preemergence, visual injury vs untreated controls after approximately 10 d, read-out: Pigweed plant response rating (0 to 100 scale where 0 is no effect and 100 is complete control)), 40%; in [6] (Preemergence, visual injury vs untreated controls after approximately 10 d, read-out: Ryegrass, Italian plant response rating (0 to 100 scale where 0 is no effect and 100 is complete control)) it was 20%. The pest or weed control at 250 g/ha in experiment [7] (setting [21]) came out at 55%; in experiment [8] (setting [21]) it was 0%; with rice (Oryra sativa) (setting [21]) it was 0%; in experiment [9] (setting [21]), 10%. The plant injury at 125 g/ha in experiment [14] (visual injury rating after approximately 10 d, read-out: Wheat plant response rating (0 to 100 scale, 0 no effect, 100 complete control)) turned out to be 30%.
